15 molecules from US10329324B2 (viDA Therapeutics Inc., priority 2013, dated 2019) can be followed below.

SMILES strings stand for the structures. pIC50: −log10 of the molar value. Structures can show the parent of a compound that is named as a salt. Bounds are passed on as bounds.

The target of one data set is T1, human Granzyme B (hGzmB) (Homo sapiens, UniProt P10144).
T1 construct: purchased Froelich Lab, Northshore University Health Systems Research Institute, Evanston, Ill., USA
T1 sequence (P10144 21-247): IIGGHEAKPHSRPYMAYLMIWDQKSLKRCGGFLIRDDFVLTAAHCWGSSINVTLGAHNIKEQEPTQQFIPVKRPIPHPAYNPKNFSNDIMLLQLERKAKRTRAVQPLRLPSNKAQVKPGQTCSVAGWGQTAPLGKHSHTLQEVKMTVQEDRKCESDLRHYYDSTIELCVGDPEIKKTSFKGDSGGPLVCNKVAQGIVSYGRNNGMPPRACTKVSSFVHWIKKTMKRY
Put plainly: Human Granzyme B enzymatic inhibition assay (fluorogenic, kinetic). It is filed as biochemical. The settings on record: activity codes, Table 7; read-out: IC50 Activity Range. As for the experimental part:
A specific 2× assay buffer was prepared for the enzyme to be tested (see Table 2 for final 1× assay buffer compositions). If the assay buffer included DTT, it was added immediately prior to running the assay. A 2× enzyme mix was prepared (see Table 3 for enzyme assay conditions) at 80 uL per well. Compounds were screened at one or two appropriate concentrations (to determine the percent inhibition at those concentrations) and/or a full dose response curve (typically 8 points, to identify the IC50) in duplicate, triplicate, or higher replicates as needed. An appropriate control was also assessed in full dose response, in duplicate for each assay/plate. Background control wells consisted of 1× assay buffer, DMSO (5% v/v) and substrate. Positive control wells consisted of enzyme, DMSO (5% v/v) and substrate. Test compounds and control compounds were diluted in DMSO to […] the final desired concentration. For example, a test compound may be tested in dose response, in serial, tripling dilution condition starting at 20 uM and ending at 9.1 nM (or any appropriate concentration range and dilution scheme). Control compounds were prepared similarly. Diluted compounds were prepared in a dilution plate and transferred to the reaction plate (96-well medium binding plate (Greiner Bio-One FLUOTRAC™)) to allow for the desired final concentrations when added to the enzyme with AB. After mixing, the reaction plate was placed on a shaker (at 300 RPM) for 5 min, followed by incubation (covered) on the bench, for 20 min. Plates were warmed to reaction temperature (see Table 3) for a total incubation time of 30 min. Plates so prepared were ready for addition of substrate and the subsequent reaction.
(§1) An appropriate substrate for each assay was prepared in advance at 2× the final desired concentration (see Table 2) in DMSO. The appropriate substrate mix was added to each appropriate well on the reaction plate, and the plate was read immediately in the TECAN plate reader (TECAN INFINITE® M1000 Pro), set to the correct wavelength as needed for each assay (see Table 3) using 25 cycles, kinetic interval of 1 min, number of reads per well of 20 with shaking set to 1 s, double orbital, 2 mm amplitude. For fluorescent assays the gain was set to optimal (50%).
An in vitro fluorogenic detection assay for assessing the IC50 and/or percent inhibition at a given concentration of inhibitors against human Granzyme B (hGzmB) enzyme was performed as described in Example D1. When appropriate, percent inhibition data was collected and fitted to generate IC50 data using GraphPad Prism 5 (GraphPad Software, La Jolla Calif. USA, www.graphpad.com) and its non-linear regression analysis tools or other equivalent tools. […]
as §1, with “5)” for “2)”, “assay buffer. 30 uL of the” for “DMSO. The”, “6)” for “3)”, “15” for “25”, “(100% with gain regulation) for all assays except human GzmB which was set to 85 (with the z set at 23000 um).” for “(50%).”
An in vitro fluorogenic detection assay for assessing the IC50 and/or percent inhibition at a given concentration of inhibitors against human Granzyme B (hGzmB) enzyme was performed as described in Example D5. When appropriate, percent inhibition data was collected and fitted to generate IC50 data using GraphPad Prism 5 (GraphPad Software, La Jolla Calif. USA, www.graphpad.com) and its non-linear regression analysis tools or other equivalent tools.
As usually defined, the pIC50 is the IC50 on a negative log10 scale, so that one unit is a factor of ten. Regarding `CC(C)(F)C(NC(=O)Cc1ccccc1)C(=O)NCC(=O)N1c2ccccc2C[C@H]1C(=O)NCc1nn[nH]n1` (mixture of isomers) [Example A41, (2S)-1-{2-[3-Fluoro-3-Methyl-2-(2-Phenylacetamido)Butanamido]Acetyl}-N-(2H-1,2,3,4-Tetrazol-5-Ylmethyl)-2,3-Dihydro-1H-Indole-2-Carboxamide], the pIC50 is less than 5.00.

As for `CC[C@H](C)[C@H](NC(=O)Cc1ccccc1)C(=O)NCC(=O)N1c2ccccc2CCC1C(=O)NCc1c[nH]nn1` (mixture of isomers) [Example B5, (2S)-1-{2-[(2S,3S)-3-Methyl-2-(2-Phenylacetamido)Pentanamido]Acetyl}-N-(1H-1,2,3-Triazol-4-Ylmethyl)-1,2,3,4-Tetrahydroquinoline-2-Carboxamide], the pIC50 is 5.00 to 6.00.

Take `CC[C@H](C)[C@H](NC(=O)Cc1ccccc1)C(=O)NCC(=O)N1c2ccc(C)cc2CC1C(=O)NCc1c[nH]nn1` (mixture of isomers) [Example B7, 5-Methyl-1-{2-[(2S,3S)-3-Methyl-2-(2-Phenylacetamido)Pentanamido]Acetyl}-N-(1H-1,2,3-Triazol-4-Ylmethyl)-2,3-Dihydro-1H-Indole-2-Carboxamide]: the pIC50 is 6.00 to 7.00.

Consider `CC[C@H](C)[C@H](NC(=O)C1CCCC1C(=O)O)C(=O)NCC(=O)N1c2ccccc2C[C@H]1C(=O)NCc1nn[nH]n1` (single isomer, unassigned) [Example A57-1], for which the pIC50 is greater than 7.00.

For `CC[C@H](C)[C@H](NC(=O)C1CCCC1C(=O)O)C(=O)NCC(=O)N1c2ccccc2C[C@H]1C(=O)NCc1nn[nH]n1` (single isomer, unassigned) [Example A57-2], the pIC50 was greater than 7.00.

Regarding `CC[C@H](C)[C@H](NC(=O)CCCCC(=O)O)C(=O)NCC(=O)N1c2ccccc2C[C@H]1C(=O)NCc1nn[nH]n1` [Example A5, 5-{[(1S,2S)-2-Methyl-1-({2-Oxo-2-[(2S)-2-[(2H-1,2,3,4-Tetrazol-5-Ylmethyl)Carbamoyl]-2,3-Dihydro-1H-Indol-1-Yl]Ethyl}Carbamoyl)Butyl]Carbamoyl}Pentanoic Acid], the pIC50 was greater than 7.00.

Take `CC[C@H](C)[C@H](NC(=O)Cc1cccc(N)c1)C(=O)NCC(=O)N1c2ccccc2C[C@H]1C(=O)NCc1nn[nH]n1` [Example A9, (2S)-1-{2-[(2S,3S)-2-[2-(3-Aminophenyl)Acetamido]-3-Methylpentanamido]Acetyl}-N-(2H-1,2,3,4-Tetrazol-5-Ylmethyl)-2,3-Dihydro-1H-Indole-2-Carboxamide Hydrochloride]: the pIC50 was 6.00 to 7.00.

Regarding `O=C(Cc1ccccc1)N[C@H](C(=O)NCC(=O)N1c2ccccc2C[C@H]1C(=O)NCc1nn[nH]n1)C1CCCCC1` [Example A11, (2S)-1-{2-[(2S)-2-Cyclohexyl-2-(2-Phenylacetamido)Acetamido]Acetyl}-N-(2H-1,2,3,4-Tetrazol-5-Ylmethyl)-2,3-Dihydro-1H-Indole-2-Carboxamide], the pIC50 was 5.00 to 6.00.

As to `CC[C@H](C)[C@H](NC(=O)CC(C)CC(=O)O)C(=O)NCC(=O)N1c2ccccc2C[C@H]1C(=O)NCc1nn[nH]n1` (stereo partly drawn) [Example A17, 3-Methyl-4-{[(1S,2S)-2-Methyl-1-({2-Oxo-2-[(2S)-2-[(2H-1,2,3,4-Tetrazol-5-Ylmethyl)Carbamoyl]-2,3-Dihydro-1H-Indol-1-Yl]Ethyl}Carbamoyl)Butyl]Carbamoyl}Butanoic Acid], the pIC50 was greater than 7.00.

With `CC[C@H](C)[C@H](NC(=O)[C@H](C)CC(=O)OC)C(=O)NCC(=O)N1c2ccccc2C[C@H]1C(=O)NCc1nn[nH]n1` [Example A29, Methyl (3R)-3-Methyl-3-{[(1S,2S)-2-Methyl-1-({2-Oxo-2-[(2S)-2-[(2H-1,2,3,4-Tetrazol-5-Ylmethyl)Carbamoyl]-2,3-Dihydro-1H-Indol-1-Yl]Ethyl}Carbamoyl)Butyl]Carbamoyl}Propanoate], the pIC50 is 6.00 to 7.00.

`CC[C@H](C)[C@H](NC(=O)C1=C(C(=O)O)CCCC1)C(=O)NCC(=O)N1c2ccccc2C[C@H]1C(=O)NCc1nn[nH]n1` [Example A31]: the pIC50 was greater than 7.00.

As to `CC[C@H](C)[C@H](NC(=O)[C@@H](O)[C@H](O)C(=O)O)C(=O)NCC(=O)N1c2ccccc2C[C@H]1C(=O)NCc1nn[nH]n1` [Example A33, (2S,3S)-2,3-Dihydroxy-3-{[(1S,2S)-2-Methyl-1-({2-Oxo-2-[(2S)-2-[(2H-1,2,3,4-Tetrazol-5-Ylmethyl)Carbamoyl]-2,3-Dihydro-1H-Indol-1-Yl]Ethyl}Carbamoyl)Butyl]Carbamoyl}Propanoic Acid], the pIC50 was greater than 7.00.

As to `CC[C@H](C)[C@H](NC(=O)Cc1cccc(CC(=O)O)c1)C(=O)NCC(=O)N1c2ccccc2C[C@H]1C(=O)NCc1nn[nH]n1` [Example A35, 2-[3-({[(1S,2S)-2-Methyl-1-({2-Oxo-2-[(2S)-2-[(2H-1,2,3,4-Tetrazol-5-Ylmethyl)Carbamoyl]-2,3-Dihydro-1H-Indol-1-Yl]Ethyl}Carbamoyl)Butyl]Carbamoyl}Methyl)Phenyl]Acetic Acid], the pIC50 was greater than 7.00.

System in a further data set: not listed separately
In words: Kinetic solubility determination in PBS. The conditions noted are these: PBS 1X pH 7.4, 2.0% DMSO, 24 hour incubation at ambient temperature. It is filed as physicochemical. The method, then:
Kinetic solubility buffer (phosphate buffered saline (PBS, 1×) at pH 7.4) was prepared from PBS (10×) solution, (Fisher Scientific, Pittsburgh, Pa., USA, 10×), by adding PBS (50 mL, 10×) to approximately water (450 mL HPLC grade). The volume of the solution was then adjusted to 500 mL for a total dilution factor of 1:10 and a final PBS concentration of 1×. The pH of the final solution (PBS (1×)) was measured and found to be 7.4.
A DMSO stock solution (typically 10 mM or greater) was used for each compound to be tested. A final DMSO concentration of 2.0% and maximum theoretical compound concentration of typically 200 μM (or greater) was achieved by diluting an aliquot (6 μl) of each stock with kinetic solubility buffer (294 μl, PBS (1×) at pH 7.4) using a liquid handling system (Hamilton STARlet, Hamilton Robotics, Inc., Reno, Nev., USA) and incubated directly in a solubility filter plate (Millipore, Billerica, Mass., USA). Following 24 hour incubation at ambient temperature (20.5-21.7° C.), each sample was vacuum filtered. The filtrate was injected into the chemiluminescent nitrogen detector for quantification (Automated Discovery Workstation, Analiza, Inc., Cleveland, Ohio, USA). Each result was reported both in μM and μg/mL units. Three separate on-board performance indicating standards were assayed in triplicate with each test compound to ensure test results were within the acceptable range.
The equimolar nitrogen response of the detector was calibrated using standards which spanned the dynamic range of the instrument from 0.08 to 4500 μg/ml nitrogen. Each filtrate was quantified with respect to this calibration curve. Each calculated solubility value was corrected for background nitrogen present in the DMSO, and buffer used to prepare each sample. All reported values for samples containing adjacent nitrogen atoms in a ring structure were corrected for the expected non-equimolar response. Each calculated solubility result assumed that each sample was free of nitrogen containing impurities and was stable under the assay conditions. Analyses were performed at Analiza Inc. (Cleveland, Ohio, USA) by published methods (Bhattachar, S. N., et al, J. Pharma. BioMed Anal. 41:152-7 2006).
For the molecule `CC[C@H](C)[C@H](NC(=O)Cc1csc2ccccc12)C(=O)N[C@H]1CCc2cccc3c2N(C1=O)[C@H](C(=O)NCc1c[nH]nn1)C3` [Willoughby 20, reference compound], the “Solubility in aqueous PBS Buffer (1X, pH 7.4), uM” value is 4.2-4.9 uM and the “Solubility in aqueous PBS Buffer (1X, pH 7.4), ug/mL” value is 2.6-3.0 ug/mL.

The same data set, now with this note: phosphate buffered saline (PBS 1×), 21 °C, pH 7.4, aqueous buffer, kinetic from dmso stock, PBS 1X pH 7.4, 2.0% DMSO, 24 hour incubation at ambient temperature, read-out: Solubility in aqueous PBS Buffer (1X, pH 7.4).
Consider `CC[C@H](C)[C@H](NC(=O)Cc1ccccc1)C(=O)NCC(=O)N1c2ccccc2C[C@H]1C(=O)NCc1csnn1` [Example B2, (2S)-1-{2-[(2S,3S)-3-Methyl-2-(2-Phenylacetamido)Pentanamido]Acetyl}-N-(1,2,3-Thiadiazol-4-Ylmethyl)-2,3-Dihydro-1H-Indole-2-Carboxamide], for which the solubility at 24 h was determined as 12.6 µM.

Staying with this data set, now noted: phosphate buffered saline (PBS 1×), 21 °C, pH 7.4, aqueous buffer, kinetic from dmso stock, PBS 1X pH 7.4, 2.0% DMSO, 24 hour incubation at ambient temperature, read-out: Solubility in aqueous PBS Buffer (1X, pH 7.4), ug/mL.
Take `CC[C@H](C)[C@H](NC(=O)Cc1ccccc1)C(=O)NCC(=O)N1c2ccccc2C[C@H]1C(=O)NCc1csnn1` [Example B2, (2S)-1-{2-[(2S,3S)-3-Methyl-2-(2-Phenylacetamido)Pentanamido]Acetyl}-N-(1,2,3-Thiadiazol-4-Ylmethyl)-2,3-Dihydro-1H-Indole-2-Carboxamide]: the solubility at 24 h stood at 8.4 µg/mL.
